Literature values as cited in US20050070607A1, “N-acetylcysteine compositions and methods for the treatment and prevention of cysteine/glutathione deficiency in diseases and conditions” (priority 2003, published 2005).
Like-named read-outs stand apart in the source and are kept apart here.

Experiments:
[1] = test system: Hepatic transplant patients; details: oxygen delivery and consumption, base deficit; 150 mg/kg for 15 min; 12.5 mg/kg for 4 h; n 50; 5 hours; Bromley 1995[19]
[2] = test system: colonic crypt epithelium of human volunteers who previously had adenomatous polyps; details: Colon cancer; proliferative index; 800 mg NAC daily po; n 64; 12 weeks; Estensen 1999[55]
[3] = test system: cardiac risk patients; details: oxygen consumption, cardiac index, ST-depression during brief hyperoxia; 150 mg/kg IV; n 30; 30 min; Spies 1996[11]
[4] = test system: Stable angina and nitrate tolerance
[5] = test system: patients with unstable angina pectoris
[6] = test system: patients with polycystic ovary syndrome; details: circulating insulin levels and insulin sensitivity; 1.8-3 g daily depending on weight; n 33; 6 weeks; Fulghesu 2002[20]
[7] = test system: Sickle Cell Disease/Vaso-occlusive disease; details: 2,400 mg daily, 12 months, Pace 2003[18]
[8] = test system: patients with high plasma Lp(a); details: plasma homocysteine; Lp(a) >0.3 g/l; 4000 mg daily po; n 11; 14 days; Wiklund 1996[277]
[9] = test system: COPD subjects
[10] = test system: Smoking
[11] = test system: premature infants with chronic lung disease; details: intratracheal NAC 5%; total airway resistance, cyanotic spells; n 22; 24 hours; Bibi 1992[203]
[12] = test system: subjects classified as slow clearers; details: .6 g oral daily, 60 days, Todisco 1985[38]
[13] = test system: septic shock patients
[14] = test system: otitis media with effusion; details: instillation into one ear; recurrence, VT re-insertion, time until VT extrusion; 0.05 ml Mucomyst solution at 1, 3 and 7 days; n 75; 39 months; Ovesen 2000[53]
[15] = test system: cochlea

CC(=O)N[C@@H](CS)C(=O)O [NAC, N-acetylcysteine]
Treatment effect [1]: Beneficial
Treatment effect [2]: Beneficial
Beneficial effects [3]: Beneficial
Beneficial effects ([4]; NAC + ISDN infusion, tolerance to antianginal effects, 2 g IV bolus, n 10, 30 hours, Boesgaard 1992[14]): Beneficial
Beneficial effects ([4]; NAC + isosorbide dinitrate (ISDN), ST segment depression, 2400 mg daily po, n 7, 8 days, Boesgaard 1991[13]): Beneficial
Beneficial effects ([4]; NAC + isosorbide-5-mononitrate, total exercise time, 4800 mg po, n 10, 24 hours, Svendsen 1989[12]): Beneficial
Beneficial effects ([5]; NAC + nitroglycerin, incidence of acute myocardial infarction, 5 g IV, n 46, 6 hours, Horowitz 1988[175,176]): Beneficial
Beneficial effects ([5]; nitroglycerin + NAC with conventional therapy, outcome events, 600 mg po, n 200, 4 months, Ardissino 1997[177]): Beneficial
Beneficial effects [6]: Beneficial
vaso-occlusive episodes ([7]; decreased from 0.03): occlusive episodes (0.03 to 0.006 episodes episodes per person-days
Beneficial effects ([7]; dense cell formation, glutathione levels, vaso-occlusive episodes, n 21): Beneficial
Beneficial effects [8]: Beneficial
Beneficial effects ([9]; hydrogen peroxide formation in the airways, oral 600 mg fizzy, n 44, 12 months, Kasielski 2001[210]): Beneficial
Beneficial effects ([9]; mucus viscosity, effective cough, clinical symptoms, 600 mg, n 60, 10 days, Verstraeten 1979[39]): Beneficial
Beneficial effects ([9]; quadriceps endurance, exercise induced oxidative stress, 1800 mg for 4 days and 600 mg the day of the test, n 9, Koechlin 2004[278]): Beneficial
Beneficial effects ([10]; formation of lipophilic-DNA adducts, 1200 mg/day po, n 41, 6 months, VanShooten 2002[35]): Beneficial
Beneficial effects ([10]; mucus clearance, 600 mg/day, n 12, 30 days, Olivieri 1985[36]): Beneficial
Beneficial effects [11]: Adverse
Beneficial effects ([12]; n 161): Beneficial
improvement in mucociliary clearance ([12]; slow clearers): a 35% improvement in mucusalary
Beneficial effects ([13]; Cardiac performance, MAP, cardiac index, left ventricular stroke work index, early administration 150 mg/kg over 15 min, 50 mg/kg over next 4 hrs, 100 mg/kg over next 24 hrs, n 20, 48 hours, Peake 1996[281]): Adverse
Beneficial effects ([13]; hepatosplanchnic flow and function, 150 mg/kg over 15 min before 12.5 mg/kg/hr for 90 min, n 60, 2 hours, Rank 2000[44]): Beneficial
Beneficial effects ([13]; respiratory function, ICU stay, IL-8, 150 mg/kg bolus then 50 mg/kg over 4 hr IV, n 22, 24 hours, Spapen 1998[43]): Beneficial
Beneficial effects ([13]; tissue oxygenation, survival of responders, 150 mg/kg for 15 min, then 12.5 mg/hr over 90 min IV, n 58, 2 hrs, Spies 1994[42]): Beneficial
Beneficial effects [14]: Beneficial
Hearing loss and cochlear damage from aminoglycoside antibiotics and cisplatin ([15]; animal models [245-247]): greatly reduced
permanent cochlear damage due to acute acoustic overexposure ([15]; animal models, systemic administration [246,248]): almost completely prevented
